Assay results from ChEMBL document CHEMBL3045457, “Synthesis and insecticidal activity of N-substituted (1,3-thiazole)alkyl sulfoximine derivatives” (2008).

test system: Myzus persicae; assay: Insecticidal activity against Myzus persicae (green peach aphid) in horsebean shoot assessed as mortality at 10 mg/l at 25 +/-1 degC treated for 2 secs measured after 16 hr; type: functional

| Compound | mortality at 10 µg/mL [%] |
| --- | --- |
| CS(=O)(Cc1cnc(Br)s1)=NC#N (configuration not stated) | 93 |
| CS(=O)(Cc1cnc(Cl)s1)=NC#N (configuration not stated) | 75 |
| CS(=O)(Cc1sc(Cl)nc1C(F)(F)F)=NC#N (configuration not stated) | 100 |
| Cc1nc(Cl)sc1CS(C)(=O)=NC#N (configuration not stated) | 0 |
| CCOc1nc(C(F)(F)F)c(CS(C)(=O)=NC#N)s1 (configuration not stated) | 68 |
| CS(=O)(Cc1sc(Br)nc1C(F)(F)F)=NC#N (configuration not stated) | 48 |
| CS(=O)(Cc1ccc(Cl)nc1)=NC#N (configuration not stated) | 100 |
